Data published in paper PMC9656205, “In Vitro/In Vivo Translation of Synergistic Combination of MDM2 and MEK Inhibitors in Melanoma Using PBPK/PD Modelling: Part I” (International Journal of Molecular Sciences, 2022).
Where two headings read alike, the source gives them in different places. Values belong to the compound of their own block, whether it stands above or below them.

Legend:
[1] = Pharmacokinetics in plasma and A375 tumour tissue after single oral administration; type: in vivo, CD-1 nude mice; conditions: female, Crl:CD-1-Foxn1nu (CD-1 nude), mouse; for Cmax: n = 3; for AUC(0-t): n = 3, read-out: AUC0–24h ± SD
Method: Pharmacokinetic profiles were determined after single oral administration of HDM201 (100 mg/kg) and Trametinib (1 mg/kg) in vehicle formulation in CD-1 nude mice. Initial analysis of compound concentrations included plasma and A375 tumour tissue homogenates.
(§1) Crl:CD-1-Foxn1^nu female mice, 4–5 weeks old, from Charles River Germany, inoculated subcutaneously with A375 cells, were used for in vivo studies. Determination of compound concentrations in plasma and A375 tumour tissue homogenates were performed with the use of quantitative LC-MS/MS system. Plasma and tissue samples were resected at the following timepoints: 1.5, 4, 8, 24 h (n = 3 per timepoint) after oral administration. Pharmacokinetic parameters AUC, Cmax, and Tmax were calculated using MS Excel 2016. Area under the concentration versus time curve was calculated using the linear trapezoidal rule.

A375 cells [2] = tested on: A375 cells; set-up: method as in PMID 30135191; conditions: cell count by amount of ATP (CellTiter-Glo assay), read-out: Literature IC50; cited from earlier work
A375 cells [3] = experiment: RealTime-Glo MT cell viability assay, cytotoxicity and drug interaction analysis; type: cell-based; conditions: Homo sapiens, A-375, n = 3; for IC50: A375 cells, 72 h incubation, read-out: RealTime-Glo IC50 ± SD
Method: (§2) Inhibition of tumour cell viability after single and combination drug treatment was measured with the use of MTS assay (CellTiter 96® AQueous Non-Radioactive Cell Proliferation Assay) and RealTime-Glo assay (RealTime-Glo™ MT Cell Viability Assay) in A375 cell line using standard manufacturer protocols. […] Drug combinations were tested in the matrix layout with the increasing concentrations of both drugs (please see Figures S1 and S2). […] Several independent assay repetitions were performed for MTS (n = 4) and RealTime-Glo assays (n = 3).
(§3) Drug combination interaction analysis was performed on in vitro cytotoxicity data from MTS and RealTime-Glo assays. […] For Synergyfinder analysis parameters, see Table S4. For a more detailed description of all Synergyfinder functions, please see its documentation and user instructions.

A375 cells [4] = experiment: MTS assay (CellTiter 96 AQueous) cytotoxicity and drug interaction analysis; type: cell-based; conditions: Homo sapiens, A-375; for IC50: A375 cells, 72 h incubation, read-out: MTS IC50 ± SD
Method: as §2, §3

A375 cells [5] = experiment: Mean of MTS and RealTime-Glo assays (cytotoxicity / drug interaction metrics); type: cell-based, human
Method: as §2, §3

[6] = tested on: A375 melanoma tumour model; experiment: In vivo efficacy, tumour growth inhibition in A375 xenograft; set-up: species or system CD-1 nude mice; conditions: n = 6
Method: The studied compounds, namely HDM201 and Trametinib, were tested separately and in combination as a therapy against an A375 melanoma tumour model. Tested compounds were administrated in three and six doses per schedule. […] Data from this efficacy study indicate that HDM201 and Trametinib are more efficacious when they are used in combination, compared to their efficacy when administered separately (please refer to maximal tumour growth inhibition (TGI) percentage, presented in Table 7, and compounds efficacy in single and combined administrations, shown in Figure 9).
as §1
Determination of tumour growth was performed after oral gavage of Vehicle (60% PEG 400 (v/v), 10% Cremophor RH40 (v/v), 10% EtOH (v/v) and 20% Labrafil M1944CS (v/v)), Siremadlin, Trametinib or their combination in Vehicle. The volume of the administered formulation (10 mL/kg) of the compounds was always adjusted to the mice body weight.
Tumour volume (V) was recorded with an electronic calliper 2–3 times a week and was calculated based on its length and width, using the prolate ellipsoid equation [46] (Equation (1)):V (mm^3) = d^2 × D/2(1) where d is the tumour width (mm) and D is the tumour length (mm).
Tumour growth inhibition (TGI) value was calculated using Equation (2):TGI (%) = (100 − (T/C × 100))(2) where C is the mean tumour size in control group (mm^3) and T is the mean tumour size in treated group (mm^3).

A375 cells [7] = tested on: A375 cells; set-up: method as in PMID 22169769; conditions: cell count by DAPI nuclei staining, read-out: Literature IC50; cited from earlier work
[8] = A375 tumour tissue homogenate, 100 mg/kg, HDM201 100 mg/kg single oral, without Trametinib, A375 tumour
[9] = A375 tumour tissue homogenate, HDM201 100 mg/kg single oral, with Trametinib 1 mg/kg, A375 tumour
[10] = plasma, 100 mg/kg, HDM201 100 mg/kg single oral, without Trametinib, plasma
[11] = plasma, HDM201 100 mg/kg single oral, with Trametinib 1 mg/kg, plasma
[12] = plasma, range stated jointly for HDM201 and Trametinib, oral, mice, sparse sampling, read-out: typical Tmax
[13] = A375 tumour tissue homogenate, 1 mg/kg, Trametinib 1 mg/kg single oral, with HDM201 100 mg/kg, A375 tumour
[14] = A375 tumour tissue homogenate, 1 mg/kg, Trametinib 1 mg/kg single oral, without HDM201, A375 tumour
[15] = plasma, 1 mg/kg, Trametinib 1 mg/kg single oral, with HDM201 100 mg/kg, plasma
[16] = plasma, 1 mg/kg, Trametinib 1 mg/kg single oral, without HDM201, plasma

- Cmax [1, 8]: 16.2 µM
- AUC(0-t) [1, 8]: 179 µM·h
- Tmax ([1]; A375 tumour tissue homogenate, 100 mg/kg, HDM201 100 mg/kg single oral, without Trametinib, A375 tumour, n = 3, read-out: Tmax ± SD): 1.5 ± 1.44 h
- Cmax [1, 9]: 28.6 µM
- AUC(0-t) [1, 9]: 219 µM·h
- Tmax ([1]; A375 tumour tissue homogenate, HDM201 100 mg/kg single oral, with Trametinib 1 mg/kg, A375 tumour, n = 3, read-out: Tmax ± SD): 1.5 ± 1.44 h
- Cmax [1, 10]: 9.78 ± 2.98 µM
- AUC(0-t) [1, 10]: 95.1 µM·h
- Tmax ([1]; plasma, 100 mg/kg, HDM201 100 mg/kg single oral, without Trametinib, plasma, n = 3, read-out: Tmax ± SD): 1.5 ± 1.44 h
- Cmax [1, 11]: 14.6 µM
- AUC(0-t) [1, 11]: 108 µM·h
- Tmax ([1]; plasma, HDM201 100 mg/kg single oral, with Trametinib 1 mg/kg, plasma, n = 3, read-out: Tmax ± SD): 1.5 ± 1.44 h
- Tmax [1, 12]: 1.5 to 4 h
SMILES: COc1ncc(-c2nc3c(n2C(C)C)[C@H](c2ccc(Cl)cc2)N(c2cc(Cl)cn(C)c2=O)C3=O)c(OC)n1 [Siremadlin (HDM201), Siremadlin]
- IC50 (A375 cells [2]): 764 nM
- IC50 (A375 cells [3]): 260 ± 170 nM
- viability at 4 µM (A375 cells [3]; RealTime-Glo, max concentration 4000 nM, last observation after 80h, read-out: % of viability at the last measurement ± SD): 21 ± 6.86%
- IC50 (A375 cells [4]; n = 4): 65.7 ± 4.7 nM
- viability at 0.2 µM (A375 cells [4]; MTS, max concentration 200 nM, last observation after 72h, n = 4 (resistant population estimate), read-out: % of viability at the last measurement ± SD): 21.9 ± 5.92%
- % of viability at the last measurement ± SD (A375 cells [5]; Siremadlin): 21.445 ± 6.389%
- Max TGI (%) ± SEM ([6]; HDM201 40 mg/kg qdx3, oral): 33.39 ± 13.90%
- Max TGI (%) ± SEM ([6]; HDM201 100 mg/kg qdx3, oral): 76.94 ± 5.38%

- Cmax [1, 13]: 0.715 ± 0.197 µM
- AUC(0-t) [1, 13]: 9.66 ± 1.39 µM·h
- Tmax ([1]; A375 tumour tissue homogenate, 1 mg/kg, Trametinib 1 mg/kg single oral, with HDM201 100 mg/kg, A375 tumour, n = 3, read-out: Tmax ± SD): 4 h
- Cmax [1, 14]: 0.587 ± 0.0663 µM
- AUC(0-t) [1, 14]: 9.13 ± 1.3 µM·h
- Tmax ([1]; A375 tumour tissue homogenate, 1 mg/kg, Trametinib 1 mg/kg single oral, without HDM201, A375 tumour, n = 3, read-out: Tmax ± SD): 4 h
- Cmax [1, 15]: 0.354 ± 0.106 µM
- AUC(0-t) [1, 15]: 4.48 ± 1.17 µM·h
- Tmax ([1]; plasma, 1 mg/kg, Trametinib 1 mg/kg single oral, with HDM201 100 mg/kg, plasma, n = 3, read-out: Tmax ± SD): 4 ± 1.44 h
- Cmax [1, 16]: 0.567 ± 0.0494 µM
- AUC(0-t) [1, 16]: 5.58 ± 0.567 µM·h
- Tmax ([1]; plasma, 1 mg/kg, Trametinib 1 mg/kg single oral, without HDM201, plasma, n = 3, read-out: Tmax ± SD): 4 ± 1.44 h
- Tmax [1, 12]: 1.5 to 4 h
SMILES: CC(=O)Nc1cccc(-n2c(=O)n(C3CC3)c(=O)c3c(Nc4ccc(I)cc4F)n(C)c(=O)c(C)c32)c1 [Trametinib]
- IC50 (A375 cells [7]): 1 nM
- IC50 (A375 cells [3]): 0.8 ± 0.4 nM
- viability at 0.04 µM (A375 cells [3]; RealTime-Glo, max concentration 40 nM, last observation after 80h, read-out: % of viability at the last measurement ± SD): 14.9 ± 2.59%
- IC50 (A375 cells [4]; n = 4): 0.58 ± 0.03 nM
- viability at 0.004 µM (A375 cells [4]; MTS, max concentration 4 nM, last observation after 72h, n = 4, read-out: % of viability at the last measurement ± SD): 13.3 ± 2.6%
- % of viability at the last measurement ± SD (A375 cells [5]; Trametinib): 14.097 ± 2.594%
- Max TGI (%) ± SEM ([6]; Trametinib 0.3 mg/kg qdx6, oral): 65.47 ± 21.29%
- Max TGI (%) ± SEM ([6]; Trametinib 1 mg/kg qdx6, oral): 90.05 ± 1.13%
